The results in this text go back to patent US20210269434A1, “TRICYCLIC COMPOUNDS AS INHIBITORS OF KRAS” (Incyte Corporation, priority 2020, published 2021).

For one experiment, the target named is KRAS G12C (Homo sapiens, UniProt P01116, G12C). The experiment can be described thus: GDP-GTP exchange assay (KRAS_G12C exchange). Conditions: bodipy-GDP loaded KRAS G12C 2.5 nM, SOS1 150 nM, GppNHp; 2 hours pre-incubation, 2 hours reaction; read-out: G12C_exchange. The experiment is classed as biochemical. In short, it runs like this: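 Fluorescence exchange of bodipy-GDP for GppNHp, SOS1-driven, read at 485/520 nm; IC50 from four-parameter variable-slope fit. Both mutants used 2.5 nM final labelled protein and a 2 h compound pre-incubation. G12C reaction had 500 uM GppNHp and 150 nM SOS1 for 2 h; G12D ran 4 h.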

The test system of experiment [1] is MIA PaCa-2 (KRAS G12C) cells. As to the kind of experiment: Cellular pERK HTRF assay (KRAS_G12C pERK). The experiment is classed as cell-based, human. Conditions: Homo sapiens, MIA PaCa-2, 4 hours incubation, read-out: G12C_pERK. In outline:
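MIA PaCa-2 cells plated overnight, then exposed to compound for 4 h at 37 °C (G12C compounds). Phospho-ERK1/2 measured in lysates by HTRF (665/620 nm) after overnight antibody incubation; IC50 from percent inhibition versus log concentration.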
A general note: Time-resolved FRET reads energy transfer from a long-lived donor to a nearby acceptor.

Some results are limits rather than exact numbers.

Sequence of KRAS G12C (P01116 1-188 isoform P01116-2 G12C): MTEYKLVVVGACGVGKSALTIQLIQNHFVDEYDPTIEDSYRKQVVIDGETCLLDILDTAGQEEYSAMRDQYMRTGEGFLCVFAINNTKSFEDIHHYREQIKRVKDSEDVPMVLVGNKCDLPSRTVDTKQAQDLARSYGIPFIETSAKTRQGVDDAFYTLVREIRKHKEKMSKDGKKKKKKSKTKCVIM

Regarding `Cc1cccc(-c2c(C)cc3c(nc(O[C@@H](C)CN(C)C)c4nnn([C@H]5CCN(C(=O)/C=C/C(F)F)[C@H](CC#N)C5)c43)c2F)c1C` [Example 144, 2-((2S,4S)-1-((E)-4,4-difluorobut-2-enoyl)-4-(4-(((S)-1-(dimethylamino)-propan-2-yl)oxy)-7-(2,3-dimethylphenyl)-6-fluoro-8-methyl-1H-[1,2,3]triazolo[4,5-c]quinolin-1-yl)piperidin-2-yl)acetonitrile], the IC50 (on KRAS G12C; in experiment [1]) was at most 100 nM each time.

Take `CC#CC(=O)N1CCC(n2nnc3c(N4CC(C)(N(C)C)C4)nc4c(F)c(-c5cccc6cccc(Cl)c56)c(Cl)cc4c32)C[C@H]1CC#N` (single isomer, unassigned) [Example 218a]: the IC50 (on KRAS G12C; in experiment [1]) was at most 100 nM each time.

Regarding `CC#CC(=O)N1CC[C@H](n2nnc3c(OC[C@@H]4CCCN4C)nc4c(F)c(-c5cccc(Cl)c5C)c(CCC#N)cc4c32)C[C@H]1CC#N` [Example 241a, 3-(1-((2S,4S)-1-(but-2-ynoyl)-2-(cyanomethyl)-piperidin-4-yl)-7-(3-chloro-2-methylphenyl)-6-fluoro-4-(((S)-1-methylpyrrolidin-2-yl)methoxy)-1H-[1,2,3]triazolo[4,5-c]quinolin-8-yl)propanenitrile], the IC50 (on KRAS G12C; in experiment [1]) was at most 100 nM each time.

Regarding `C=CC(=O)N1CC[C@H](n2cnc3c(N4CC(N(C)C)C4)nc4c(F)c(-c5c(OC)ncc(Cl)c5C)c(Cl)cc4c32)C[C@H]1CC#N` [Example 90, 2-((2S,4S)-1-acryloyl-4-(8-chloro-7-(5-chloro-2-methoxy-4-methylpyridin-3-yl)-4-(3-(dimethylamino)azetidin-1-yl)-6-fluoro-1H-imidazo[4,5-c]quinolin-1-yl)piperidin-2-yl)acetonitrile], the IC50 (at KRAS G12C; in experiment [1]) was at most 100 nM throughout.

In the case of `C=CC(=O)N1CC(n2cnc3c(OC[C@@H]4CCCN4C)nc4c(F)c(-c5cc(O)cc6ccccc56)c(Cl)cc4c32)C1` (single isomer, unassigned) [Example 6a], the IC50 is at most 100 nM on KRAS G12C and 100 to 1000 nM in experiment [1].

With `C=CC(=O)N1CC[C@H](n2nnc3c(N4CCOCC4=O)nc4c(F)c(-c5cccc(C)c5Cl)c(C)cc4c32)C[C@H]1CC#N` [Example 259, 2-((2S,4S)-1-acryloyl-4-(7-(2-chloro-3-methylphenyl)-6-fluoro-8-methyl-4-(3-oxomorpholino)-1H-[1,2,3]triazolo[4,5-c]quinolin-1-yl)piperidin-2-yl)acetonitrile], the IC50 (on KRAS G12C; in experiment [1]) was at most 100 nM in each case.

With `C=CC(=O)N1CCC(n2cnc3c(OC[C@@H]4CCCN4C)nc4c(F)c(-c5c(C)c(Cl)cc6[nH]ncc56)c(Cl)cc4c32)CC1CC#N` (single isomer, unassigned) [Example 40a], the IC50 (at KRAS G12C; in experiment [1]) was at most 100 nM each time.

In the case of `Cc1cccc(-c2c(Cl)cc3c(nc(N4CC(N(C)C)C4)c4ncn([C@H]5CCN(C(=O)/C=C/CF)[C@H](CC#N)C5)c43)c2F)c1C` [Example 149, 2-((2S,4S)-4-(8-chloro-4-(3-(dimethylamino)azetidin-1-yl)-7-(2,3-dimethylphenyl)-6-fluoro-1H-imidazo[4,5-c]quinolin-1-yl)-1-((E)-4-fluorobut-2-enoyl)piperidin-2-yl)acetonitrile], the IC50 (at KRAS G12C; in experiment [1]) was at most 100 nM each time.

`Cc1cc2c(nc(O[C@@H](C)CN(C)C)c3nnn([C@H]4CCN(C(=O)/C=C/CF)[C@H](CC#N)C4)c32)c(F)c1-c1ccc(F)cc1` [Example 134, 2-((2S,4S)-4-(4-(((S)-1-(dimethylamino)propan-2-yl)oxy)-6-fluoro-7-(4-fluorophenyl)-8-methyl-1H-[1,2,3]triazolo[4,5-c]quinolin-1-yl)-1-((E)-4-fluorobut-2-enoyl)piperidin-2-yl)acetonitrile]: the IC50 (at KRAS G12C; in experiment [1]) was at most 100 nM each time.

Turning to `C=CC(=O)N1CC[C@H](n2nnc3c(N4CC(N(C)C)C4)nc4c(Cl)c(-c5cccc(Cl)c5C)c(Cl)cc4c32)C[C@H]1CC#N` [Example 273, 2-((2S,4S)-1-acryloyl-4-(6,8-dichloro-7-(3-chloro-2-methylphenyl)-4-(3-(dimethylamino)azetidin-1-yl)-1H-[1,2,3]triazolo[4,5-c]quinolin-1-yl)piperidin-2-yl)acetonitrile], the IC50 (on KRAS G12C; in experiment [1]) was at most 100 nM each time.

For the compound `C=CC(=O)N1CC[C@H](n2nnc3c(N4CC(N(C)C)C4)nc4c(F)c(-c5ccc(F)c(C)c5C)c(Cl)cc4c32)C[C@H]1CC#N` [Example 116, 2-((2S,4S)-1-acryloyl-4-(8-chloro-4-(3-(dimethylamino)azetidin-1-yl)-6-fluoro-7-(4-fluoro-2,3-dimethylphenyl)-1H-[1,2,3]triazolo[4,5-c]quinolin-1-yl)piperidin-2-yl)acetonitrile], the IC50 (at KRAS G12C; in experiment [1]) was at most 100 nM each time.

On to `Cc1cc2c(nc(N3CC(C)(N(C)C)C3)c3nnn([C@H]4CCN(C(=O)/C=C/CN(C)C)[C@H](CC#N)C4)c32)c(F)c1-c1cccc(Cl)c1C` [Example 105, 2-((2S,4S)-4-(7-(3-chloro-2-methylphenyl)-4-(3-(dimethylamino)-3-methylazetidin-1-yl)-6-fluoro-8-methyl-1H-[1,2,3]triazolo[4,5-c]quinolin-1-yl)-1-((E)-4-(dimethylamino)but-2-enoyl)piperidin-2-yl)acetonitrile], for which the IC50 (at KRAS G12C; in experiment [1]) was at most 100 nM throughout.

Turning to `C=CC(=O)N1CC[C@H](n2cnc3c(N4CC(C)(N(C)C)C4)nc4c(F)c(-c5ccc(F)cc5)c(Cl)cc4c32)C[C@H]1CC#N` [Example 120, 2-((2S,4S)-1-acryloyl-4-(8-chloro-4-(3-(dimethylamino)-3-methylazetidin-1-yl)-6-fluoro-7-(4-fluorophenyl)-1H-imidazo[4,5-c]quinolin-1-yl)piperidin-2-yl)acetonitrile], the IC50 (at KRAS G12C; in experiment [1]) was at most 100 nM in each case.

Take `C=CC(=O)N1CCC(n2cnc3c(-c4cc(O)cc5ccccc45)nc4c(F)c(-c5cc(O)cc6ccccc56)c(Cl)cc4c32)CC1` [Example 11, 1-(4-(8-chloro-6-fluoro-4,7-bis(3-hydroxynaphthalen-1-yl)-1H-imidazo[4,5-c]quinolin-1-yl)piperidin-1-yl)prop-2-en-1-one]: the IC50 on KRAS G12C was at most 100 nM; in experiment [1], 100 to 1000 nM.

Take `CC#CC(=O)N1CC[C@H](n2nnc3c(N4CCN(C)CC4=O)nc4c(F)c(-c5cccc(Cl)c5C)c(Cl)cc4c32)C[C@H]1CC#N` [Example 92, 2-((2S,4S)-1-(but-2-ynoyl)-4-(8-chloro-7-(3-chloro-2-methylphenyl)-6-fluoro-4-(4-methyl-2-oxopiperazin-1-yl)-1H-[1,2,3]triazolo[4,5-c]quinolin-1-yl)piperidin-2-yl)acetonitrile]: the IC50 (on KRAS G12C; in experiment [1]) was at most 100 nM in each case.

As for `C=CC(=O)N1CC[C@H](n2nnc3c(N4CC(N(C)C)C4)nc4c(Cl)c(-c5cccc(Cl)c5OC)c(Cl)cc4c32)C[C@H]1CC#N` [Example 290, 2-((2S,4S)-1-acryloyl-4-(6,8-dichloro-7-(3-chloro-2-methoxyphenyl)-4-(3-(dimethylamino)azetidin-1-yl)-1H-[1,2,3]triazolo[4,5-c]quinolin-1-yl)piperidin-2-yl)acetonitrile], the IC50 (at KRAS G12C; in experiment [1]) was at most 100 nM throughout.
